We go through one compound from publication PMC6934184, “Selective DNA-PKcs inhibition extends the therapeutic index of localized radiotherapy and chemotherapy” (The Journal of Clinical Investigation, 2019).

In this assay the target is T1, EPHA3 (Homo sapiens, UniProt P29320).
T1 construct: purchased Thermo Fisher Scientific (Life Technologies) SelectScreen
The assay is described as follows: SelectScreen LanthaScreen. Format: binding. Particulars: read-out: % displacement. Put shortly: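 NU5455 was profiled across the SelectScreen Broad panel of kinase activity and binding assays. Z'LYTE reactions such as CSF1R ran at apparent Km ATP, while the Adapta CAMK1 assay used ATP listed as 10. Values are given as percent.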
(In TR-FRET formats the signal depends on donor and acceptor labels being close together.)

Each structure is given as a SMILES string.

T1 sequence (P29320 21-983): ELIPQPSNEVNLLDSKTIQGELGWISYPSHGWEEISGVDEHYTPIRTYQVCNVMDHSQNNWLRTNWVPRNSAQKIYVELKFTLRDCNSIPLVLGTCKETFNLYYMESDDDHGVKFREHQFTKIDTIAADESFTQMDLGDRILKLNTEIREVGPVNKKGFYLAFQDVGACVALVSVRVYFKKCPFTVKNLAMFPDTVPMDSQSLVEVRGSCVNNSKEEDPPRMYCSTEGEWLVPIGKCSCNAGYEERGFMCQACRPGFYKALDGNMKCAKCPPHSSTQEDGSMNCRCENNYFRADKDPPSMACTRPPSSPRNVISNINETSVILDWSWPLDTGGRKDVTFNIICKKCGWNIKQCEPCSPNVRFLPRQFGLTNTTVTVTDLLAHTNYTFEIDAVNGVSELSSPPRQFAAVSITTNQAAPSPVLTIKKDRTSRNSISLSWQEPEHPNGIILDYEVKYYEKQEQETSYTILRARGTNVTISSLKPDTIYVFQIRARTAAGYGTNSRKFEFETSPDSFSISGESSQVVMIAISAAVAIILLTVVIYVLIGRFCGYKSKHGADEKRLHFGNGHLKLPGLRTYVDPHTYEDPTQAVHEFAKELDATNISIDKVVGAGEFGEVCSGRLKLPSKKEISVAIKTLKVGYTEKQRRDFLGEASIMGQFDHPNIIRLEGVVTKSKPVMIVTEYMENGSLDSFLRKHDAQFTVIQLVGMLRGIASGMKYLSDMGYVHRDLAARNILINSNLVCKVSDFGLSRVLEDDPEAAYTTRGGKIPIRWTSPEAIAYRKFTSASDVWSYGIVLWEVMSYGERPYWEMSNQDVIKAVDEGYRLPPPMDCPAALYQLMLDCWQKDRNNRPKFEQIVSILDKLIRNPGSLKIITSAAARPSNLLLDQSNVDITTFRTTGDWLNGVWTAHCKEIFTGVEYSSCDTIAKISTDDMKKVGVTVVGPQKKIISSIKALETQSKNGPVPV

`CN(C(=O)CN1CCOCC1)c1ccc2sc3c(-c4cccc5c(=O)cc(N6CC7CCC(C6)O7)oc45)cccc3c2c1` [NU5455]: the inhibition at 1 µM was -0.3%.
